Patent publication US10519211B2, “Compounds as peptidic GLP1/glucagon/GIP receptor agonists” (SANOFI, priority 2016, dated 2019)
Numbered stars: 1 amine (or outer) side, 2 acyl side, 3 side chain; on linkers, the order of the positions; unused ones are H or OH. Square brackets hold non-standard residues; d marks the D form. Side chains are listed from the residue outwards. Peptide text beside a SMILES is read from it. * marks the point of attachment. γGlu = O=C(O)[C@H](CCC(=O)[*:2])N[*:1]; Palmitoyl = CCCCCCCCCCCCCCCC(=O)*; Aib = CC(C)(N)C(=O)O

Tests used:
[1] = Chemical stability assessment (UPLC-UV, relative purity loss); format: physicochemical; conditions: 1 mg/ml, 25 mM acetate buffer pH 4.5 with m-cresol (buffer system A)
Method in brief: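 Peptide at 1 mg/mL (purity-corrected) in 25 mM acetate pH 4.5 with methionine, m-cresol and glycerol, sterile-filtered, stored 28 days at 40° C. Purity measured by UPLC-UV as peptide peak area fraction at start and after storage; value is relative percent purity loss.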

[2] = Thioflavin T (ThT) assay for physical stability (fibrillation); format: physicochemical; conditions: 3 mg/ml, 100 mM acetate pH 4.5 with m-cresol, shaking at 37° C.
Method in brief: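 Peptide at 3 mg/ml with 100 μM ThT in 100 mM acetate pH 4.5 with m-cresol, stressed at 37° C by cycles of 10 s shaking at 960 rpm and 50 s rest. Fluorescence read every 20 minutes, eight replicates; lag time in hours.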

[3] = system: female, diabetic db/db mice; assay: Acute effects after subcutaneous treatment on blood glucose in non-fasting diabetic db/db mice; format: in vivo, mouse; conditions: for Blood glucose AUC compared to the Diabetic-Vehicle group: 24 h; for Plasma glucose area under the curve (mmol/L in 24 h): once 30 μg/kg s.c., mean ± SEM
Protocol: Female healthy, lean BKS.Cg-(lean)/OlaHsd and diabetes-prone, obese BKS.Cg-+Lepr^db/+Lepr^db/OlaHsd mice were ordered group housed from Envigo RMS Inc., shipped group housed and remained group housed in shoebox caging with wood chip bedding until day 15 of the predose phase. At the study start mice were approximately 12 weeks old.
Mice were housed under vivarium conditions including a 12 h light/dark cycle (light phase 04:00 AM-4:00 PM), room temperatures between 23-26° C. and a relative humidity between 30-70%. All animals had free access to water and Purina Fomulab Diet 5008.
On predose day 9 blood glucose and body mass (approximately between 08:00-10:00 AM) as well as HbA1c measurements were performed. On day 15 of the predose phase animals were assigned to treatment groups (n=8) and to new cages to match mean HbA1c and body masses between all db/db groups. An age-matched lean group was included in the study as a healthy, lean reference.
Prior to day 1 of the dosing phase, the test article was diluted with Phosphate Buffered Saline (PBS, Gibco, without CaCl2 and MgCl2) to a concentration of 1 mg/mL and aliquots of this stock solution were stored at approximately −60° C. On day 1 of the dosing phase the stock aliquot was thawed and the injected test article solution was prepared fresh by diluting it with PBS to achieve the desired concentration.
On Day 1 of the dosing phase db/db mice were either treated once with a s.c. injection of PBS-vehicle or 30 μg/kg test article. The lean reference group was treated once with a s.c. injection of PBS-vehicle. The dosing was initiated and completed between 08:00 and 10:00 AM. The applied volume was 5 ml/kg and the dose was adjusted to the most recent body mass recording of each individual.
Animals had unlimited access to water and feed during the experiment. On day 1 of the dosing phase approximately 5 μL of blood were collected via tail clips at minute −30 and 0 prior to any other inlife activities. At minute 0 mice received a s.c. dose of either PBS-vehicle or 30 μg/kg test article. Further blood samples were harvested at hour 0.25, 0.5, 1, 1.5, 2, 3, 4, 6, 8, and 24 post-dose. Glucose measurements were performed in whole blood using AlphaTRAK glucometers. If the glucose concentrations of two measurements differed by more than 20 mg/dL a third value was recorded. The Area Under the Curve (AUC) for blood glucose was calculated via the trapezoid method and for the duration of the 24 post-dose hours.
Data are depicted as means±SEM. […] A One-Way ANOVA and Tukey Test were used for pairwise multiple comparisons of all groups (n=8/group, deviations from group size are indicated). […] Data from a Non-Diabetic-Vehicle group serve as a reference dataset for the normoglycemic, lean state.
Female, 12 weeks old, healthy, lean BKS.Cg-(lean)/OlaHsd or diabetes-prone, obese BKS.Cg-+Leprdb/+Leprdb/OlaHsd mice were treated once with a s.c. injection of PBS, 30 μg/kg SEQ ID NO: 6 or 30 μg/kg SEQ ID NO: 7. The dosing was initiated and completed between 08:00 and 10:00 AM. The applied volume was 5 ml/kg and the dose was adjusted to the most recent body mass recording of each individual. Diabetic db/db mice were HbA1c- and body mass-matched. The lean reference group was treated once with a s.c. injection of PBS-vehicle.
Animals had unlimited access to water and feed during the experiment. On day 1 of the dosing phase approximately 5 μL of blood were collected via tail clips at minute −30 and 0 prior to any other inlife activities. At minute 0 mice received a s.c. dose of either PBS-vehicle, 30 μg/kg SEQ ID NO: 6 or SEQ ID NO: 7. Further blood samples were harvested at minute 15, 30, 60, 90, 120, 150, 180, 240, 360, and 480 post-dose. Glucose measurements were performed in whole blood using AlphaTRAK glucometers. If the glucose concentrations of two measurements differed by more than 20 mg/dL a third value was recorded. […]

[4] = 30 μg/kg s.c. once, fed db/db mice
[5] = 30 μg/kg s.c. once, fed db/db mice, in words

Structure (SMILES) | Chemical stability [relative purity loss 28 days 40° C.] (%) at pH 4.5 [1] [%] | Lag time before increase [2] [h] | Blood glucose AUC compared to the Diabetic-Vehicle group ([3]; 30 μg/kg s.c. once, in words) | Time post dose at which lowest blood glucose levels were reached [3, 4] | Blood glucose profile following single treatment [3, 5] | Plasma glucose area under the curve (mmol/L in 24 h) ([3]; Table 10, fed db/db mice) | Mean blood glucose concentrations twenty four hours post-dose [3, 5] | Plasma glucose area under the curve (mmol/L in 24 h) ([3]; Table 12, fed db/db mice)
CCCCCCCCCCCCCCCC(=O)N[C@@H](CCC(=O)N[C@@H](CCC(=O)NCCCC[C@H](NC(=O)[C@H](CC(C)C)NC(=O)[C@H](CCCCN)NC(=O)[C@H](CO)NC(=O)[C@H](CC(C)C)NC(=O)[C@H](CC(=O)O)NC(=O)[C@H](CO)NC(=O)[C@@H](NC(=O)[C@H](Cc1ccccc1)NC(=O)[C@@H](NC(=O)CNC(=O)[C@H](CCC(N)=O)NC(=O)C(C)(C)NC(=O)[C@@H](N)Cc1c[nH]cn1)[C@@H](C)O)[C@@H](C)O)C(=O)N[C@@H](CCC(=O)O)C(=O)N[C@@H](CCCCN)C(=O)N[C@@H](CCC(N)=O)C(=O)N[C@@H](CCCNC(=N)N)C(=O)N[C@@H](CCC(N)=O)C(=O)NC(C)(C)C(=O)N[C@@H](CCC(=O)O)C(=O)N[C@@H](Cc1ccccc1)C(=O)N[C@H](C(=O)N[C@@H](CCC(=O)O)C(=O)N[C@@H](Cc1c[nH]c2ccccc12)C(=O)N[C@@H](CC(C)C)C(=O)N[C@@H](CCCCN)C(=O)N[C@@H](C)C(=O)N[C@H](C)C(=O)NCC(=O)N1CCC[C@H]1C(=O)N1CCC[C@H]1C(=O)N[C@@H](CO)C(=O)NC(C)(C)C(=O)N[C@@H](CCCCN)C(=O)N1CCC[C@H]1C(=O)N1CCC[C@H]1C(=O)N1CCC[C@H]1C(=O)N[C@@H](CCCCN)C(N)=O)[C@@H](C)CC)C(=O)O)C(=O)O [SEQ ID NO: 7, H-Aib-Q-G-T-F-T-S-D-L-S-K-L-K[gGlu-gGlu-Palm]-E-K-Q-R-Q-Aib-E-F-I-E-W-L-K-A-dAla-G-P-P-S-Aib-K-P-P-P-K-NH2] (H-H[Aib]QGTFTSDLSKLK([γGlu-γGlu-Palmitoyl])EKQRQ[Aib]EFIEWLKA[dA]GPPS[Aib]KPPPK-NH2) | 6.8 | >45 | statistically significant reduction in the blood glucose AUC | approximately 8 hours | acute decrease in blood glucose concentrations | +461.54 ± 39.43 mmol/L in 24 h |  | 
CCCCCCCCCCCCCCCC(=O)N[C@@H](CCC(=O)N[C@@H](CCC(=O)NCCCC[C@H](NC(=O)[C@H](CC(C)C)NC(=O)[C@H](CCCCN)NC(=O)[C@H](CO)NC(=O)[C@H](CC(C)C)NC(=O)[C@H](CC(=O)O)NC(=O)[C@H](CO)NC(=O)[C@@H](NC(=O)[C@H](Cc1ccccc1)NC(=O)[C@@H](NC(=O)CNC(=O)[C@H](CCC(N)=O)NC(=O)C(C)(C)NC(=O)[C@@H](N)Cc1c[nH]cn1)[C@@H](C)O)[C@@H](C)O)C(=O)N[C@@H](CCC(=O)O)C(=O)N[C@@H](CCCCN)C(=O)N[C@@H](CCC(N)=O)C(=O)N[C@@H](CCCNC(=N)N)C(=O)N[C@@H](CCC(N)=O)C(=O)NC(C)(C)C(=O)N[C@@H](CCC(=O)O)C(=O)N[C@@H](Cc1ccccc1)C(=O)N[C@H](C(=O)N[C@@H](CCC(=O)O)C(=O)N[C@@H](Cc1c[nH]c2ccccc12)C(=O)N[C@@H](CC(C)C)C(=O)N[C@@H](CCCCN)C(=O)N[C@@H](C)C(=O)N[C@H](C)C(=O)NCC(=O)N[C@@H](Cc1c[nH]cn1)C(=O)N1CCC[C@H]1C(=O)N[C@@H](CO)C(=O)NC(C)(C)C(=O)N[C@@H](CCCCN)C(=O)N1CCC[C@H]1C(=O)N1CCC[C@H]1C(=O)N1CCC[C@H]1C(=O)N[C@@H](CCCCN)C(N)=O)[C@@H](C)CC)C(=O)O)C(=O)O [SEQ ID NO: 13, H-Aib-Q-G-T-F-T-S-D-L-S-K-L-K[gGlu-gGlu-Palm]-E-K-Q-R-Q-Aib-E-F-I-E-W-L-K-A-dAla-G-H-P-S-Aib-K-P-P-P-K-NH2] (H-H[Aib]QGTFTSDLSKLK([γGlu-γGlu-Palmitoyl])EKQRQ[Aib]EFIEWLKA[dA]GHPS[Aib]KPPPK-NH2) | 4.5 | >45 | statistically significant reduction in the blood glucose AUC | approximately 8 hours | acute decrease in blood glucose concentrations |  | close to baseline | +458.34 ± 27.11 mmol/L in 24 h
